Experimental data taken from the supplement of paper PMC10307832.

How the values were obtained:
Experiment in all cases: relative viability (nuclei count vs DMSO), 5 days (fraction); higher = more cells survive
Apatinib + Foretinib = compound: N#CC1(c2ccc(NC(=O)c3cccnc3NCc3ccncc3)cc2)CCCC1 [Apatinib] + COc1cc2c(Oc3ccc(NC(=O)C4(C(=O)Nc5ccc(F)cc5)CC4)cc3F)ccnc2cc1OCCCN1CCOCC1 [Foretinib] (partner 0.25 µM)
How it was run: (§1)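 Each reported value is a median over duplicate plates. It expresses relative viability: treated-well nuclei count divided by vehicle-well nuclei count. Lung cancer cell lines in 1536-well plates were dosed by pin tool a day after seeding, alone with one drug or with a fixed anchor-drug dose plus five library-drug doses (not always all listed) in √10 steps, and nuclei were counted after 5 days.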

Metformin + Pemetrexed = compound: CN(C)C(=N)NC(=N)N [Metformin] + Nc1nc2[nH]cc(CCc3ccc(C(=O)N[C@@H](CCC(=O)O)C(=O)O)cc3)c2c(=O)[nH]1 [Pemetrexed] (partner 0.2 µM)
How it was run: as §1

Apatinib + Pemetrexed = compound: N#CC1(c2ccc(NC(=O)c3cccnc3NCc3ccncc3)cc2)CCCC1 [Apatinib] + Nc1nc2[nH]cc(CCc3ccc(C(=O)N[C@@H](CCC(=O)O)C(=O)O)cc3)c2c(=O)[nH]1 [Pemetrexed] (partner 0.2 µM)
How it was run: as §1

Apatinib + Trametinib = compound: N#CC1(c2ccc(NC(=O)c3cccnc3NCc3ccncc3)cc2)CCCC1 [Apatinib] + CC(=O)Nc1cccc(-n2c(=O)n(C3CC3)c(=O)c3c(Nc4ccc(I)cc4F)n(C)c(=O)c(C)c32)c1 [Trametinib] (partner 0.02 µM)
How it was run: as §1

| Cell Line | relative viability (Apatinib + Foretinib; first compound 0.08 µM) | relative viability (Apatinib + Foretinib; first compound 0.253 µM) | relative viability (Apatinib + Foretinib; first compound 0.8 µM) | relative viability (Apatinib + Foretinib; first compound 2.53 µM) | relative viability (Apatinib + Foretinib; first compound 8 µM) | relative viability (Metformin + Pemetrexed; first compound 10 µM) | relative viability (Metformin + Pemetrexed; first compound 31.62 µM) | relative viability (Metformin + Pemetrexed; first compound 100 µM) | relative viability (Metformin + Pemetrexed; first compound 316.23 µM) | relative viability (Metformin + Pemetrexed; first compound 1000 µM) | relative viability (Apatinib + Pemetrexed; first compound 0.08 µM) | relative viability (Apatinib + Pemetrexed; first compound 0.253 µM) | relative viability (Apatinib + Pemetrexed; first compound 0.8 µM) | relative viability (Apatinib + Pemetrexed; first compound 2.53 µM) | relative viability (Apatinib + Pemetrexed; first compound 8 µM) | relative viability (Apatinib + Trametinib; first compound 0.253 µM) | relative viability (Apatinib + Trametinib; first compound 0.8 µM) | relative viability (Apatinib + Trametinib; first compound 2.53 µM) | relative viability (Apatinib + Trametinib; first compound 8 µM) | relative viability (Apatinib + Trametinib; first compound 0.08 µM) |
| --- | --- | --- | --- | --- | --- | --- | --- | --- | --- | --- | --- | --- | --- | --- | --- | --- | --- | --- | --- | --- |
| EMC-BAC-2 | 1.08 | 1.12 | 1.04 | 0.919 | 0.858 | 0.429 | 0.488 | 0.452 | 0.492 | 0.48 | 0.452 | 0.465 | 0.422 | 0.406 | 0.401 | 0.869 | 0.887 | 0.818 | 0.799 | – |
| NCI-H1355 | 0.961 | 0.9 | 1.07 | 0.9 | 0.786 | 0.942 | 1.02 | 1.02 | 1 | 0.94 | 1.09 | 1.01 | 1 | 0.898 | 0.918 | 0.444 | 0.354 | 0.367 | 0.314 | 0.422 |
| SW 900 | 1.06 | 0.921 | 0.822 | 0.584 | 0.605 | 0.52 | 0.479 | – | 0.507 | 0.477 | 0.486 | 0.467 | 0.427 | 0.379 | 0.321 | 0.801 | 0.772 | 0.623 | 0.642 | 0.757 |
| A-427 | 1.22 | 0.828 | 1.03 | 1.01 | 0.598 | 0.972 | 1.05 | 1 | 1 | 0.878 | 0.993 | 0.903 | 0.974 | 0.896 | 0.932 | 0.741 | 0.726 | 0.737 | 0.521 | 0.832 |
| NCI-H1793 | 0.761 | 0.585 | 0.507 | 0.601 | 0.475 | 1.16 | 0.826 | 1.23 | 0.874 | 1.22 | 1.1 | 0.932 | 0.871 | 0.726 | 0.633 | 0.449 | 0.443 | 0.34 | 0.301 | 0.432 |
| NCI-H1563 | 0.897 | 0.996 | 0.884 | 0.812 | 0.897 | 0.874 | 0.899 | 0.847 | 0.89 | 0.921 | 0.622 | 0.765 | 0.795 | 0.708 | 0.681 | – | – | – | – | – |
| EBC-1 | 0.111 | 0.0844 | 0.0979 | 0.0995 | 0.1 | – | – | – | – | – | – | – | – | – | – | – | – | – | – | – |
| NCI-H596 | 0.771 | 0.888 | 0.624 | 0.99 | 0.853 | 0.582 | 0.563 | 0.546 | 0.498 | 0.539 | 0.541 | 0.539 | 0.494 | 0.405 | 0.442 | 0.831 | 0.803 | 0.696 | 0.722 | 0.89 |
| NCI-H2228 | 0.933 | 0.791 | 0.777 | 0.688 | 0.51 | 0.313 | 0.199 | 0.381 | 0.28 | 0.337 | 0.324 | 0.312 | 0.356 | 0.208 | 0.192 | 0.568 | 0.646 | 0.416 | 0.549 | 0.405 |
| NCI-H661 | 1 | 0.93 | 1.04 | 1.02 | 0.941 | 0.9 | 0.934 | 0.877 | 0.858 | 0.879 | 0.933 | 0.853 | 0.911 | 0.917 | 0.892 | 0.594 | 0.571 | 0.532 | 0.463 | 0.606 |
| 201T | 1.15 | 1.11 | 1.05 | 1.06 | 0.813 | – | 0.329 | 0.313 | 0.289 | 0.353 | 0.325 | 0.37 | 0.297 | 0.334 | 0.316 | 0.725 | 0.68 | 0.729 | 0.607 | 0.731 |
| HARA | 0.976 | 0.898 | 0.812 | 0.847 | 0.93 | 0.323 | 0.28 | 0.327 | 0.301 | 0.28 | 0.246 | 0.227 | 0.21 | – | 0.173 | 0.829 | 0.673 | – | 0.6 | 0.736 |
| NCI-H3122 | 0.995 | 0.891 | 0.947 | 1.06 | 0.918 | 0.178 | 0.171 | 0.197 | 0.184 | 0.222 | 0.212 | 0.192 | 0.199 | 0.202 | 0.188 | 0.234 | 0.247 | 0.181 | 0.176 | 0.251 |
| NCI-H1651 | 0.925 | 0.897 | 0.765 | 0.577 | 0.495 | 0.445 | 0.62 | 0.608 | 0.53 | 0.599 | 0.552 | 0.555 | 0.556 | 0.531 | 0.483 | 0.874 | 0.821 | 0.75 | 0.684 | 0.84 |
| NCI-H1648 | – | – | – | – | – | – | 0.664 | 0.876 | 0.67 | 0.713 | 0.681 | 0.613 | 0.706 | 0.548 | 0.691 | 0.467 | 0.39 | 0.537 | 0.335 | 0.466 |
| HCC-44 | – | – | – | – | – | – | 0.593 | 0.593 | 0.531 | 0.603 | 0.677 | 0.626 | 0.616 | 0.63 | 0.521 | 0.993 | 1.07 | 1.09 | 0.811 | 1.08 |
| A549 | 0.945 | 0.933 | 1 | 0.887 | 0.855 | – | – | – | – | – | – | – | – | – | – | – | – | – | – | – |
| NCI-H1299 | 1.14 | 1.13 | 1.09 | 1.09 | 0.941 | – | – | – | – | – | – | – | – | – | – | – | – | – | – | – |
| NCI-H727 | 1.02 | 0.676 | 0.937 | 0.835 | 0.912 | – | – | – | – | – | – | – | – | – | – | – | 0.386 | 0.416 | 0.342 | 0.386 |
| NCI-H522 | – | – | – | – | – | 1.15 | 1.21 | 1.25 | 1.12 | 1.46 | 0.986 | 0.975 | 0.993 | 0.66 | 0.748 | 0.77 | 0.731 | 0.592 | 0.68 | 0.799 |
